Measured values taken from patent publication US20160143867A1, “METHODS AND PHARMACEUTICAL COMPOSITIONS FOR TREATING CANCER” (INSERM (INSTITUT NATIONAL DE LA SANTÉ ET DE LA RECHERCHE …, priority 2013, published 2016).

System: glioma-initiating cells (GICs)
Test: Cell survival of GICs exposed to GHB
Details: exposure of GICs to GHB

Which cell survival does the source give for `O=C(O)CCCO` [GHB, gamma-hydroxybutyrate] here?
The cell survival was “without affecting cell survival”.
